Laboratory results from patent publication US20180319810A1, “SUBSTITUTED BRIDGED UREA ANALOGS AS SIRTUIN MODULATORS” (GlaxoSmithKline Intellectual Property (No.2) Limited, priority 2014, published 2018).

target: T1, SIRT1 (Homo sapiens, UniProt Q96EB6); assay: Trp mass spectrometry assay of SIRT1 activation; type: biochemical; details: Trp peptide Ac-R-H-K-K(Ac)-W-NH2 0.5 μM, 120 μM βNAD+, 10 nM SIRT1, 25 min, 25° C.
T1 sequence (Q96EB6 1-747): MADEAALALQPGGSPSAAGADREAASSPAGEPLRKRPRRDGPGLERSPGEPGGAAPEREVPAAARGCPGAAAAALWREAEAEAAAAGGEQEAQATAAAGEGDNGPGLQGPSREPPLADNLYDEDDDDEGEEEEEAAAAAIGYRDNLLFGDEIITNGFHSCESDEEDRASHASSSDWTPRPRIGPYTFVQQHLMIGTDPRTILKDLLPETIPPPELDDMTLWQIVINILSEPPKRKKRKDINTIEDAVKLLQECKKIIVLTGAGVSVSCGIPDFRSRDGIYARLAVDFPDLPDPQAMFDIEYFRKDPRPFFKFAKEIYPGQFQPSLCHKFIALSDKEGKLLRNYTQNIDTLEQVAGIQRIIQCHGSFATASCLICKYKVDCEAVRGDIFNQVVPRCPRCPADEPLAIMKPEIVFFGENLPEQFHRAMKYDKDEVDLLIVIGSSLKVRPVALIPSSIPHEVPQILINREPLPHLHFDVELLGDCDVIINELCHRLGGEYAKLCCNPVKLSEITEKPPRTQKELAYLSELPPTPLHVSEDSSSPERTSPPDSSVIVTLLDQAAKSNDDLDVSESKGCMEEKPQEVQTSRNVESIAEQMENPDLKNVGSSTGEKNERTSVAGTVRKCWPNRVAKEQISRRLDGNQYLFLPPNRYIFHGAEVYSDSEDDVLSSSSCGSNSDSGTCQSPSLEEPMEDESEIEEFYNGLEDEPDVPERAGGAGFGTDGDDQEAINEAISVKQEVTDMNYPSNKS
From the text: Mass spectrometry based assays were used to identify modulators of SIRT1 activity. […] The peptide was labeled with the fluorophore 5TMR (excitation 540 nm/emission 580 nm) at the C-terminus. The sequence of the peptide substrate was based on p53 with several modifications. In addition, the methionine residue naturally present in the sequence was replaced with the norleucine because the methionine may be susceptible to oxidation during synthesis and purification.
The Trp mass spectrometry assay was conducted as follows. […] The SIRT1 protein was obtained by cloning the SirT1 gene into a T7-promoter containing vector, which was then expressed in BL21(DE3) bacterial cells and purified as described in further detail below. Test compound was added at varying concentrations to this reaction mixture and the resulting reactions were monitored. After the 25 minute incubation with SIRT1, 10 μL of 10% formic acid was added to stop the reaction. The resulting reactions were sealed and frozen for later mass spec analysis. The relative SIRT1 activity was then determined by measuring the amount of O-acetyl-ADP-ribose (OAADPR) formed (or, alternatively, the amount of deacetylated Trp peptide generated) by the NAD-dependent sirtuin deacetylation reaction in the presence of varying concentrations of the test compound versus control reactions lacking the test compound.
The degree to which the test agent activated deacetylation by SIRT1 was expressed as EC1.5 (i.e., the concentration of compound required to increase SIRT1 activity by 50% over the control lacking test compound), and Percent Maximum Activation (i.e., the maximum activity relative to control (100%) obtained for the test compound).
This time point was the same as that used for test compounds and, within the linear range, the endpoint represents a change in velocity.
For the above assay, SIRT1 protein was expressed and purified as follows. The SirT1 gene was cloned into a T7-promoter containing vector and transformed into BL21(DE3). The protein was expressed by induction with 1 mM IPTG as an N-terminal His-tag fusion protein at 18° C. overnight and harvested at 30,000×g. Cells were lysed with lysozyme in lysis buffer (50 mM Tris-HCl, 2 mM Tris[2-carboxyethyl]phosphine (TCEP), 10 μM ZnCl2, 200 mM NaCl) and further treated with sonication for 10 min for complete lysis. The protein was purified over a Ni-NTA column (Amersham) and fractions containing pure protein were pooled, concentrated and run over a sizing column (Sephadex S200 26/60 global). The peak containing soluble protein was collected and run on an Ion-exchange column (MonoQ). Gradient elution (200 mM-500 mM NaCl) yielded pure protein. This protein was concentrated and dialyzed against dialysis buffer (20 mM Tris-HCl, 2 mM TCEP) overnight. The protein was aliquoted and frozen at −80° C. until further use.
“NT” means not tested; “ND” means not determinable.

Row | SMILES | TRP Activity (EC1.5, concentration of compound required to increase SIRT1 activity by 50% over control) | TRP MAX RESP (percent maximum fold activation relative to control)
1 | Cc1nc(C(=O)N[C@H](C)C(F)(F)F)nc2c1N1CCC[C@@H](C1)N2C(=O)Nc1cc(OC[C@H](O)CO)ccn1 [Example 67, (9S)—N10-(4-((R)-2,3-dihydroxypropoxy)pyridin-2-yl)-4-methyl-N2-((R)-1,1,1-trifluoropropan-2-yl)-8,9-dihydro-6H-5,9-methanopyrimido[4,5-b][1,4]diazocine-2,10(7H)-dicarboxamide] | A (EC1.5<1 μM) | A (Fold activation ≥150%)
2 | O=C(Nc1cnnc(OC[C@@H](O)CO)c1)N1c2nc(-c3cccc(C(F)(F)F)c3)ncc2N2CC[C@H]1C2 [Example 54, (8S)—N-(6-((S)-2,3-dihydroxypropoxy)pyridazin-4-yl)-2-(3-(trifluoromethyl)phenyl)-7,8-dihydro-5,8-methanopyrimido[4,5-b][1,4]diazepine-9(6H)-carboxamide] | B (EC1.5 1-25 μM) | A (Fold activation ≥150%)
3 | O=C(Nc1ccnc(OC[C@@H](O)CO)n1)N1c2nc(-c3cccc(C(F)(F)F)c3)ncc2N2CC[C@H]1C2 [Example 17, (8S)—N-(2-((S)-2,3-dihydroxypropoxy)pyrimidin-4-yl)-2-(3-(trifluoromethyl)phenyl)-7,8-dihydro-5,8-methanopyrimido[4,5-b][1,4]diazepine-9(6H)-carboxamide] | B (EC1.5 1-25 μM) | A (Fold activation ≥150%)
4 | Cc1ccc2c(NC(=O)N3c4nc(C(=O)NC(CO)C(F)(F)F)ncc4N4CCC[C@H]3C4)n[nH]c2n1 (single isomer, unassigned) [Example 68] | B (EC1.5 1-25 μM) | A (Fold activation ≥150%)
5 | O=C(Nc1cc(OC[C@@H](O)CO)ncn1)N1c2nc(-c3cccc(C(F)(F)F)c3)ncc2N2CCC[C@H]1C2 [Example 96, (9S)—N-(6-((S)-2,3-dihydroxypropoxy)pyrimidin-4-yl)-2-(3-(trifluoromethyl)phenyl)-8,9-dihydro-6H-5,9-methanopyrimido[4,5-b][1,4]diazocine-10(7H)-carboxamide] | A (EC1.5<1 μM) | A (Fold activation ≥150%)
6 | O=C(Nc1ccnc(OC[C@H](O)CO)n1)N1c2nc(-c3cccc(C(F)(F)F)c3)ncc2N2CC[C@H]1C2 [Example 28, (8S)—N-(2-((R)-2,3-dihydroxypropoxy)pyrimidin-4-yl)-2-(3-(trifluoromethyl)phenyl)-7,8-dihydro-5,8-methanopyrimido[4,5-b][1,4]diazepine-9(6H)-carboxamide] | B (EC1.5 1-25 μM) | A (Fold activation ≥150%)
7 | Cc1nc(-c2cccc(C(F)(F)F)c2)nc2c1N1CCC[C@@H](C1)N2C(=O)Nc1nccc(OC[C@H](O)CO)n1 [Example 111, (9S)—N-(4-((R)-2,3-dihydroxypropoxy)pyrimidin-2-yl)-4-methyl-2-(3-(trifluoromethyl)phenyl)-8,9-dihydro-6H-5,9-methanopyrimido[4,5-b][1,4]diazocine-10(7H)-carboxamide] | A (EC1.5<1 μM) | A (Fold activation ≥150%)
8 | O=C(Nc1ncc(OC[C@@H](O)CO)cn1)N1c2nc(-c3cccc(C(F)(F)F)c3)ncc2N2CCC[C@H]1C2 [Example 93, (9S)—N-(5-((S)-2,3-dihydroxypropoxy)pyrimidin-2-yl)-2-(3-(trifluoromethyl)phenyl)-8,9-dihydro-6H-5,9-methanopyrimido[4,5-b][1,4]diazocine-10(7H)-carboxamide] | B (EC1.5 1-25 μM) | A (Fold activation ≥150%)
9 | O=C(Nc1nccc(OC[C@H](O)CO)n1)N1c2nc(-c3cccc(C(F)(F)F)c3)ncc2N2CCC[C@H]1C2 [Example 100, (9S)—N-(4-((R)-2,3-dihydroxypropoxy)pyrimidin-2-yl)-2-(3-(trifluoromethyl)phenyl)-8,9-dihydro-6H-5,9-methanopyrimido[4,5-b][1,4]diazocine-10(7H)-carboxamide] | A (EC1.5<1 μM) | A (Fold activation ≥150%)
10 | Cc1ccc2c(NC(=O)N3c4nc(C(=O)N[C@H](C)C(F)(F)F)nc(C)c4N4CC[C@H]3C4)n[nH]c2n1 [Example 60, (8S)-4-methyl-N9-(6-methyl-1H-pyrazolo[3,4-b]pyridin-3-yl)-N2-((R)-1,1,1-trifluoropropan-2-yl)-7,8-dihydro-5,8-methanopyrimido[4,5-b][1,4]diazepine-2,9(6H)-dicarboxamide] | B (EC1.5 1-25 μM) | A (Fold activation ≥150%)
11 | O=C(Nc1ccc(OC[C@@H](O)CO)nc1)N1c2nc(-c3cccc(C(F)(F)F)c3)ncc2N2CC[C@H]1C2 [Example 38, (8S)—N-(6-((S)-2,3-dihydroxypropoxy)pyridin-3-yl)-2-(3-(trifluoromethyl)phenyl)-7,8-dihydro-5,8-methanopyrimido[4,5-b][1,4]diazepine-9(6H)-carboxamide] | A (EC1.5<1 μM) | A (Fold activation ≥150%)
12 | CN(C)c1ccc(-c2ncc3c(n2)N(C(=O)Nc2ccccn2)[C@H]2CCN3C2)cn1 [Example 9, (8S)-2-(6-(dimethylamino)pyridin-3-yl)-N-(pyridin-2-yl)-7,8-dihydro-5,8-methanopyrimido[4,5-b][1,4]diazepine-9(6H)-carboxamide] | B (EC1.5 1-25 μM) | –
13 | Cc1ccc(-c2ncc3c(n2)N(C(=O)Nc2ccccn2)[C@H]2CCN3C2)cn1 [Example 4, (8S)-2-(6-methylpyridin-3-yl)-N-(pyridin-2-yl)-7,8-dihydro-5,8-methanopyrimido[4,5-b][1,4]diazepine-9(6H)-carboxamide] | B (EC1.5 1-25 μM) | –
14 | O=C(Nc1ccnc(O[C@H]2CCOC2)n1)N1c2nc(-c3cccc(C(F)(F)F)c3)ncc2N2CC[C@H]1C2 [Example 25, (8S)—N-(2-(((S)-tetrahydrofuran-3-yl)oxy)pyrimidin-4-yl)-2-(3-(trifluoro-methyl)phenyl)-7,8-dihydro-5,8-methanopyrimido[4,5-b][1,4]diazepine-9(6H)-carboxamide] | B (EC1.5 1-25 μM) | A (Fold activation ≥150%)
